Assays:
[1] = system: NCC-CDS-X1 cells; assay: EdU incorporation (FACS) in NCC-CDS-X1 cells; format: cell-based, human
Method: EdU labeling and visualization was done using Click-iT® EdU Flow Cytometry Assay Kit (Thermo Fisher Scientific). Briefly, 1×10^5 NCC-CDS-X1 cells were plated in each well of a 24-well plate. The following day, continual treatment with 0.3 μM iP300w was initiated. For the pulse experiment, cells were treated with iP300w for 4 or 24 hours and analyzed 24 hours later. Cells were cultured with EdU ([…]) in the last 4 hours of the experiment, and samples were prepared for analyses according to the manufacture's instruction. FACS analyses were performed on a BD FACSAria instrument and data was analyzed using FlowJo (BD Biosciences). Experiments were performed on at least three biological replicates.

[2] = system: Ewing sarcoma cell lines (AF573, TC71, A673); assay: Cell viability (ATP) assay in Ewing sarcoma cell lines; format: cell-based; conditions: 0.003 and 0.03 μM, 48 hours
Method: Cell lines were plated in a 96 well dish (1×10^5 cells/well), and the following day were treated with iP300w or its stereoisomers. ATP assays were performed using CellTiter-Glo® Luminescent Cell Viability Assay (Promega) according to the manufacturer's instructions. Luminescence was analyzed on POLARstar Optima Microplate Reader (BMG Labtech, Offenburg, Germany).
(§1) To determine whether iP300w was particularly active against CDS cells, vis-à-vis other related cancer cell lines, viability of 3 different Ewing sarcoma (ES) cell lines and several different immortalized cell lines treated with iP300w were compared. […] Furthermore, gene expression analyses confirmed the specificity of iP300w to CDS.

[3] = system: CIC-DUX4 target genes like ETV4 and CCNE1 in ES cell lines (AF573, TC71, A673); assay: RT-qPCR for CIC-DUX4 target genes in Ewing sarcoma cell lines; format: cell-based; conditions: 0.03 μM, 18 hours
Method: RNA was extracted using an RNA extraction kit (Zymo) and cDNA was made using 0.5 μg total RNA with oligo-dT primer and Verso cDNA Synthesis Kit (Thermo Scientific) following the manufacturer's instructions. qPCRs were performed by using Premix Ex Taq (Probe qPCR, Takara) or SYBR-green. Gene expression levels were normalized to that of GAPDH and analyzed with 7500 System Software using the ACT method (Applied Biosystems). RNA-seq library preparation was done with 500 ng total RNA from NCC-CDS-X1 cells treated for 4 or 24 hours with iP300w (0.3 μM) using the Swift Rapid RNA Library Kit (SwiftBioscience). 36 base paired-end sequencing was performed on an Illumina NextSeq instrument at the University of Minnesota Genomics Center.
as §1

[4] = system: NCC-CDS-X1 subcutaneous xenograft tumors; assay: NCC-CDS-X1 xenograft tumor growth in mice; format: in vivo, mouse; conditions: 1.4 mg/kg b.i.d. intraperitoneally from day 9, 12 days
Method: Mice were maintained, and in vivo experiments were conducted at the University of Minnesota Research Animal Resources facility, under a protocol (1903-36866A) approved by IACUC. Immunodeficient NSG-MDX mice (n=8) were transplanted with 1×10^7 NCC-CDS-X1 cells resuspended in 100 uL of a mixture of medium and Matrigel (Corning). Visible tumor masses at the sites of injection were detected on day 9 after transplantation. All the injected mice developed tumors. At this point, the mice were randomized into two groups, control and iP300w treated, and initial measurement of the tumors was performed. iP300w was initially dissolved in DMSO at 10 mM and then diluted in 100 uL PBS. Each mouse received 1.4 mg/kg iP300w intraperitoneally twice daily or vehicle in the control group. Tumor size was recorded every 4 days and the volume was calculated using the formula (length×width^2)/2.
Finally, the effectiveness of iP300w to suppress CDS tumor growth in vivo was assessed. NCC-CDS-X1 cells were used to generate subcutaneous xenograft tumors in immunodeficient NSG mice (n=8). When tumors were palpable (day 9) iP300w injections (1.4 mg/kg b.i.d.) were initiated and the progression of tumor growth was monitored.

[5] = system: global H3K18 and H3K27 acetylation; assay: Western blot for H3 acetylation markers in NCC-CDS-X1 cells; format: cell-based, human; conditions: NCC-CDS-X1, 18 hours
Method: (§2) For western blot analyses, cells were lysed with RIPA buffer supplemented with protease inhibitor cocktail (Complete, Roche), and proteins were separated on 10% SDS-PAGE gels, then transferred to PVDF membranes. Antibodies were diluted in 5% skim milk in TBST and incubated overnight at 4° C. or 1 hour at RT. An appropriate secondary HRP conjugated antibody was incubated for 1 hour at RT. Membranes were then washed with TBST, and signal was visualized using Pierce ECL western blotting substrate (Thermo Scientific). For immunofluorescence, cells cultured in 96 well plates were fixed in 4% PFA for 10 min., washed twice with PBS, permeabilized with 0.3% Triton X for 30 min, and blocked with 3% BSA for 1 hour at R/T. Primary antibodies were diluted in 3% BSA and incubated o/n at 4° C. An appropriate conjugated secondary antibody was applied for 60 min at RT. Nuclei were visualized using DAPI (1:5000, Sigma). […]

[6] = system: global H3K18 and H3K27 acetylation; assay: Western blot for H3 acetylation markers in Kitra-SRS cells; format: cell-based, human; conditions: 18 hours
Method: as §2

[7] = system: DUX4; conditions: cited from earlier work

CNC(=O)Cn1cc(-c2ccc3c(c2)[C@H](F)C[C@]32NC(=O)N(CC(=O)N(Cc3ccc(F)cc3)[C@@H](C)C(F)(F)F)C2=O)cn1 (single isomer, unassigned) [iP300w]
proliferation rate after 4-hour pulse ([1]; 0.3 μM 4-hour pulse, measured 20 hours later): significantly reduced proliferation rate
cell cycle recovery after 24-hour pulse ([1]; 0.3 μM treated for 24 hours, 48 hours after the pulse): not able to restore the cell cycle
EdU labeling of proliferating cells ([1]; continual treatment 0.3 μM, 48 hours): virtually no cells were labelled
effect on cell viability [2]: only effective for CIC-DUX4 driven sarcomas and not for the other cell lines
effect on basal expression of CIC-DUX4 target genes and cell cycle-related genes [3]: did not affect the basal expression
treated mice with tumor growth halted [4]: 5/8
treated mice with tumor growth significantly diminished [4]: 3/8
effect on global H3K18 and H3K27 acetylation [5]: reduces global H3K18 and H3K27 acetylation
effect on global H3K18 and H3K27 acetylation [6]: reduces global H3K18 and H3K27 acetylation
effect on cell death caused by full length DUX4 [7]: cell death was prevented
effect on gene expression changes caused by DUX4 [7]: ability to reverse gene expression changes caused by DUX4
